By pIC50 is commonly meant −log10 of the IC50, conventionally taken in molar units.

Assay [1] concerns the target MEK1 (Homo sapiens, UniProt Q02750). It counts as biochemical.
Assay [2] deals with PI3Kα (Homo sapiens, UniProt P42336). The assay can be described thus: Adapta TR-FRET lipid kinase assay with purified enzyme. Type of assay: biochemical. For orientation: Time-resolved FRET reads energy transfer from a long-lived donor to a nearby acceptor.

SMILES strings stand for the structures. pIC50: −log10 of the molar value.

Sequence of MEK1 (Q02750 whole entry): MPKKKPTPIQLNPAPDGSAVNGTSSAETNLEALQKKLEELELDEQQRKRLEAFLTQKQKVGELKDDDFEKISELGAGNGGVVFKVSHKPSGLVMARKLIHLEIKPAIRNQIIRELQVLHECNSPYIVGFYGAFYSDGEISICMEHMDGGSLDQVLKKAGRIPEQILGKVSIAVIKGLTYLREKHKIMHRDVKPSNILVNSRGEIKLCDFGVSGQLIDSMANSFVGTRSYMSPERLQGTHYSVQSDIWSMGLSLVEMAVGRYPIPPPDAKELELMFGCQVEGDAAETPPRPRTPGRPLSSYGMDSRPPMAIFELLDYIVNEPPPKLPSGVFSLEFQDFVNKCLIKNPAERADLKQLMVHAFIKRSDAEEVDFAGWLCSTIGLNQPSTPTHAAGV
Sequence of PI3Kα (P42336 whole entry): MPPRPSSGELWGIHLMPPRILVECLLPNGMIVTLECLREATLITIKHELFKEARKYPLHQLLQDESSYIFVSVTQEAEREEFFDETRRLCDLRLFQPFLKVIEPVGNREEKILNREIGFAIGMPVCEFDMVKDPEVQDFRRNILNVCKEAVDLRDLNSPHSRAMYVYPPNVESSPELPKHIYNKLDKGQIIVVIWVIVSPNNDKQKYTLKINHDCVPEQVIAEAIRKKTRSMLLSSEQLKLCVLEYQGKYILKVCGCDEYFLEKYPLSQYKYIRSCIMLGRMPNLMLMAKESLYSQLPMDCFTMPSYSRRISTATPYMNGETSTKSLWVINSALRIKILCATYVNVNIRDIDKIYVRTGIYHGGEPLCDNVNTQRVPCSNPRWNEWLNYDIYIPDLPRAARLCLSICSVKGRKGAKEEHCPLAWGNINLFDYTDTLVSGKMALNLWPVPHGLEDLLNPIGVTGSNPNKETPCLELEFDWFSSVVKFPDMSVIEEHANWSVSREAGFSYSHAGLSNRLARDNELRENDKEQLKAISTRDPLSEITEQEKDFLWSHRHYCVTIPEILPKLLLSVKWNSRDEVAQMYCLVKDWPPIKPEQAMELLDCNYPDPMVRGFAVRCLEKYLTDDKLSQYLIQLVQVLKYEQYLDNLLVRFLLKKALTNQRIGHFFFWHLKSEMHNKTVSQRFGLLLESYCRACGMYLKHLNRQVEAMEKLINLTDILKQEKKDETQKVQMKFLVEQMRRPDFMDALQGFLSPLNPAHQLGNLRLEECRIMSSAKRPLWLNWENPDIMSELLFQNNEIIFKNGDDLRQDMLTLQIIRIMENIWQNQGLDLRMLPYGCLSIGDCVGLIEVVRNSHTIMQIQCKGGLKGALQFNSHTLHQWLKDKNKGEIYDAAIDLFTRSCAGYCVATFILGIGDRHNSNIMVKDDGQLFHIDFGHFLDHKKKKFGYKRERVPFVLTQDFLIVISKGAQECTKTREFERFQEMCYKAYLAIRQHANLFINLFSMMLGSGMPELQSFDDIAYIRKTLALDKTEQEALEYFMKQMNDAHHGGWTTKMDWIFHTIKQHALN
Sequence of PI3Kα (P27986 2-724 partner): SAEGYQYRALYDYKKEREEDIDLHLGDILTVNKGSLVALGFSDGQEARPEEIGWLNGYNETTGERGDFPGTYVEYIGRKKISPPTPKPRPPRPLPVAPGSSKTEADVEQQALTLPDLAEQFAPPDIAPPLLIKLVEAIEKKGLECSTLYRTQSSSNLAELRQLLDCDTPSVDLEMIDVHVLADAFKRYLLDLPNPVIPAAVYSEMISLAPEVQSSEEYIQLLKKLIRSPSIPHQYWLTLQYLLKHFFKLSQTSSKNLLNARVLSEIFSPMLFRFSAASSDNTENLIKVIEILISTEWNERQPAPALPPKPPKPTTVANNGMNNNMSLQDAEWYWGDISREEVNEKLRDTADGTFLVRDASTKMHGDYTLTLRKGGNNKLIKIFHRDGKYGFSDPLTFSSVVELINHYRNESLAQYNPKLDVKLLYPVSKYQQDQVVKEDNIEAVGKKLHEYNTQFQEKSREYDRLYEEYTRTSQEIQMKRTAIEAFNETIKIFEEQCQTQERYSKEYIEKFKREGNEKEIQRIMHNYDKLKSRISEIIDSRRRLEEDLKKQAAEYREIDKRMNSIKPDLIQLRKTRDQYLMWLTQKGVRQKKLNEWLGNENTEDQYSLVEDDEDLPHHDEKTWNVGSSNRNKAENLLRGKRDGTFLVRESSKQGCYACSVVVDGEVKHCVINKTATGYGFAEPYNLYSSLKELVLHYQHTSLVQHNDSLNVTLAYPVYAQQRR

In the case of `O=C(NOCCOCCOCCOCCN1CCN(c2nc(N3CCOCC3)nc(-n3c(C(F)F)nc4ccccc43)n2)CC1)c1ccc(F)c(F)c1Nc1ccc(I)cc1F` [ST-162], the results for the pIC50 in assay [1] and in assay [2] were 6.40 and 6.72, respectively.

For the origin of these results see paper PMC5669819 (Molecular cancer therapeutics, 2017).
